In patent publication US8623902B2, “Microbiocides” (Syngenta Crop Protection, LLC, priority 2008, dated 2014):

Experiments:
Septoria tritici = assay: Action against Septoria tritici - fungal growth assay; type: cell-based; details: Zymoseptoria tritici; 0.002% active ingredient, PDB broth, 24° C., photometric after 72 hrs
Experimental: (§1) Action Against Septoria tritici—Fungal Growth Assay Conidia of the fungus from cryogenic storage are directly mixed into nutrient broth (PDB potato dextrose broth). After placing a (DMSO) solution of the test compounds (0.002% active ingredient) into a microtiter plate (96-well format) the nutrient broth containing the fungal spores is added. The test plates are incubated at 24° C. and the inhibition of growth is determined photometrically after 72 hrs. The activity of a compound is expressed as fungal growth inhibition (0=no growth inhibition, ratings of 80% to 99% mean good to very good inhibition, 100%=complete inhibition).

[1] = test system: Erysiphe graminis f.sp. tritici; assay: Action against Erysiphe graminis f.sp. tritici (wheat powdery mildew), wheat leaf segments; type: in vivo; details: Blumeria graminis, foliar, 168 h; wheat leaf segments sprayed with 0.02% active ingredient, assessed 7 days after inoculation; read-out: preventive fungicidal activity (inhibition)
Experimental: (§2) Action Against Erysiphe graminis f.sp. tritici (Wheat Powdery Mildew) Wheat leaf segments are placed on agar in multiwell plates (24-well format) and sprayed with test solutions (0.02% active ingredient). After drying, the leaf disks are inoculated with a spore suspension of the fungus. After appropriate incubation the activity of a compound is assessed 7 days after inoculation as preventive fungicidal activity.

[2] = test system: Monographella nivalis (anamorph: Fusarium nivale, Microdochium nivale; snow mould); assay: Action against Monographella nivalis - fungal growth assay; type: cell-based; details: 0.002% active ingredient, PDB broth, 24° C., photometric after 72 hrs
Experimental: as §1, with “Monographella nivalis (Anamorph: Fusarium nivale, Microdochium nivale; Snow Mould)—Fungal” for “Septoria tritici—Fungal”, “DMSO-solution” for “(DMSO) solution”, “measured” for “determined”, “hrs” for “hrs. The activity of a compound is expressed as fungal growth inhibition”

Pyrenophora teres = assay: Action against Pyrenophora teres (net blotch) on barley; type: in vivo; details: foliar, 96 h, barley leaf segments sprayed with 0.02% active ingredient, assessed 4 days after inoculation, read-out: preventive fungicidal activity (inhibition)
Experimental: as §2, with “Pyrenophora teres (Net Blotch) on Barley Barley” for “Erysiphe graminis f.sp. tritici (Wheat Powdery Mildew) Wheat”, “4” for “7”

Rhizoctonia solani = assay: Action against Rhizoctonia solani - fungal growth assay; type: cell-based; details: 0.002% active ingredient, PDB broth, 24° C., photometric after 3-4 days
Experimental: as §1, with “Rhizoctonia solani—Fungal” for “Septoria tritici—Fungal”, “Mycelial fragments of a newly grown liquid culture” for “Conidia”, “fungus” for “fungus from cryogenic storage”, “measured” for “determined”, “3-4 days.” for “72 hrs.”

[3] = test system: Leptosphaeria nodorum (Septoria nodorum); assay: Action against Leptosphaeria nodorum (Septoria nodorum; glume blotch) on wheat; type: in vivo; details: Parastagonospora nodorum, foliar, 96 h; wheat leaf segments sprayed with 0.02% active ingredient, assessed 4 days after inoculation; read-out: preventive fungicidal activity (inhibition)
Experimental: as §2, with “Leptosphaeria nodorum (Septoria nodorum; Glume Blotch) on Wheat” for “Erysiphe graminis f.sp. tritici (Wheat Powdery Mildew)”, “4” for “7”

[4] = test system: Mycosphaerella arachidis (early leaf spot of groundnut; Cercospora arachidicola [anamorph]); assay: Action against Mycosphaerella arachidis - fungal growth assay; type: cell-based; details: 0.002% active ingredient, PDB broth, 24° C., photometric after 6-7 days
Experimental: as §1, with “Mycosphaerella arachidis (Early Leaf Spot of Groundnut; Cercospora arachidicola [anamorph])—Fungal” for “Septoria tritici—Fungal”, “measured” for “determined”, “6-7 days.” for “72 hrs.”

Botrytis cinerea = assay: Action against Botrytis cinerea - fungal growth assay; type: cell-based; details: 0.002% active ingredient, PDB broth, 24° C., photometric after 3-4 days
Experimental: as §1, with “Botrytis cinerea—Fungal” for “Septoria tritici—Fungal”, “measured” for “determined”, “3-4 days.” for “72 hrs.”

Puccinia recondita [5] = assay: Protective action against Puccinia recondita (brown rust) on wheat; type: in vivo; details: foliar, 192 h, wheat leaf segments sprayed with 0.02% active ingredient, assessed 8 days after inoculation, read-out: preventive fungicidal activity (inhibition)
Experimental: as §2, with “Protective Action” for “Action”, “Puccinia recondita (Brown Rust) on Wheat” for “Erysiphe graminis f.sp. tritici (Wheat Powdery Mildew)”, “8” for “7”

Puccinia recondita [6] = assay: Curative action against Puccinia recondita (brown rust) on wheat; type: in vivo; details: foliar, wheat leaf segments sprayed with 0.02% active ingredient one day after inoculation, assessed 8 days after inoculation, read-out: curative fungicidal activity (inhibition)
Experimental: Curative Action Against Puccinia recondita (Brown Rust) on Wheat Wheat leaf segments are placed on agar in multiwell plates (24-well format) and inoculated with a spore suspension of the fungus. One day after inoculation the leaf segments are sprayed with test solutions (0.02% active ingredient). After appropriate incubation the activity of a compound is assessed 8 days after inoculation as curative fungicidal activity.

SMILES | inhibition at 0.002 % strength (Septoria tritici) [%] | inhibition at 0.02 % strength [1] [%] | inhibition at 0.002 % strength [2] [%] | inhibition at 0.02 % strength (Pyrenophora teres) [%] | inhibition at 0.002 % strength (Rhizoctonia solani) [%] | inhibition at 0.02 % strength [3] [%] | inhibition at 0.002 % strength [4] [%] | inhibition at 0.002 % strength (Botrytis cinerea) [%] | inhibition at 0.02 % strength (Puccinia recondita [5]) [%] | inhibition at 0.02 % strength (Puccinia recondita [6]) [%] | melting point [°C]
Cn1cc(C(=O)N2CCC[C@H]2COc2c(Cl)cc(Cl)cc2Cl)c(C(F)F)n1 [Compound 1.006] | ≥ 80 | ≥ 80 | ≥ 50 | ≥ 80 | ≥ 50 | ≥ 50 | ≥ 80 | ≥ 80 | ≥ 80 | ≥ 80 | 
CO/N=C/c1cc(Cl)c(OC[C@@H]2CCCN2C(=O)c2cn(C)nc2C(F)F)c(Cl)c1 [Compound 1.021, 3,5-dichloro-4-[(S)-1-(3-difluoromethyl-1-methyl-1H-pyrazole-4-carbonyl)-pyrrolidin-2-ylmethoxy]-benzaldehyde O-methyl-oxime] | ≥ 80 |  |  | ≥ 80 | ≥ 50 |  | ≥ 80 | ≥ 80 | ≥ 80 |  | 
Cc1cccc(C)c1OC[C@@H]1CCCN1C(=O)c1cn(C)nc1C(F)F [Compound 1.068] | ≥ 80 | ≥ 80 |  | ≥ 80 | ≥ 50 | ≥ 50 | ≥ 80 | ≥ 80 | ≥ 80 | ≥ 80 | 137 to 140
Cn1cc(C(=O)N2CCCC2Cc2c(Cl)cccc2Cl)c(C(F)F)n1 (centres unmarked) [Compound 1.110, [2-(2,6-dichloro-benzyl)-pyrrolidin-1-yl]-(3-difluoromethyl-1-methyl-1H-pyrazol-4-yl)-methanone] | ≥ 80 | ≥ 50 |  | ≥ 80 |  |  | ≥ 80 |  |  |  | 
Cn1cc(C(=O)N2CCC[C@H]2C(F)c2ccc(Cl)cc2)c(C(F)F)n1 (stereo partly drawn) [Compound 1.215, {(S)-2-[(4-chlorophenyl)-fluoro-methyl]-pyrrolidin-1-yl}-(3-difluoromethyl-1-methyl-1H-pyrazol-4-yl)-methanone] | ≥ 80 |  |  | ≥ 80 |  | ≥ 50 | ≥ 80 |  |  |  | 
Cn1cc(C(=O)N2CCC[C@H]2C(=O)c2ccc(Cl)cc2)c(C(F)F)n1 [Compound 1.259, (4-chloro-phenyl)-[(S)-1-(3-difluoromethyl-1-methyl-1H-pyrazole-4-carbonyl)-pyrrolidin-2-yl]-methanone] |  |  |  | ≥ 50 |  |  |  |  |  |  | 
